“Also recorded” adds a separate entry of the source. Where two headings read alike, the source gives them in different places.
Experiments:
[1] = biological target: T1, Medicago truncatula NFP ectodomain, wild type (residues 28-246) (Medicago truncatula, UniProt Q0GXS4); assay: biolayer interferometry (BLI) binding of S. meliloti Nod factor LCO-IV to NFP WT ectodomain; details: n = 7
T1 construct: The M. truncatula NFP ectodomain (residues 28-246); AcMNPV gp67 signal peptide, replaces the native signal peptide (N); hexa-histidine (C); made in house; host or cells: Sf9 insect cells (Spodoptera frugiperda), baculovirus
Protocol: (§1) The M. truncatula NFP ectodomain (residues 28-246) was codon-optimized for insect cell expression (Genscript, Piscataway, USA) and cloned into the pOET4 baculovirus transfer vector (Oxford Expression Technologies). The native NFP signal peptide (residues 1-27, predicted by SignalP 4.1) was replaced with the AcMNPV gp67 signal peptide to facilitate secretion and a hexa-histidine tag was added to the C-terminus. Recombinant baculoviruses were produced in […] (Spodoptera frugiperda) using the FlashBac Gold kit (Oxford Expression technologies) according to the manufacturer's instructions with Lipofectin (ThermoFisher Scientific) as a transfection reagent. Protein expression was performed as follows. Suspension-cultured Sf9 cells were maintained with shaking at 299 K in serum-free MAX-XP (BD-Biosciences, discontinued) or HyClone SFX (GE Healthcare) medium supplemented with 1% Pen-Strep (10000 U/ml, Life technologies) and 1% CD lipid concentrate (Gibco). Protein expression was induced by adding recombinant passage 3 virus once the Sf9 cells reached a cell density of 1.0*10^6 cells/ml. After 5-7 days of expression, medium supernatant containing NFP ectodomains was harvested by centrifugation. This was followed by an overnight dialysis step against 50 mM Tris-HCl pH 8, 200 mM NaCl at 277 K. The NFP ectodomain was enriched by two subsequent steps of Ni-IMAC purification (HisTrap excel/HisTrap HP, both GE Healthcare). For crystallography, N-glycans were removed using the endoglycosidase PNGase F (1:15 (w/w), room temperature, overnight). As a final purification step, NFP ectodomains was purified by SEC on a Superdex 200 10/300 or HiLoad Superdex 200 16/600 (both GE Healthcare) in phosphate buffered saline at pH 7.2 supplemented to a total of 500 mM NaCl (for binding assays) or 50 mM Tris-HCl, 200 mM NaCl (for crystallography). NFP ectodomain eluted as a single, homogeneous peak corresponding to a monomer.
(§2) The binding assay using NFP wild type (WT) was replicated seven times, while the binding assay using the NFP mutant NFP L147D L154D was replicated four times.
Binding of NFP WT and NFP L147D/L154D mutant to S. meliloti Nod factor LCO-IV was measured on an Octet RED 96 system (Pall ForteBio). […] Equilibrium dissociation constants derived from the steady-state were determined by applying a non-linear regression (one site, specific binding) to the response at equilibrium plotted against the protein concentration. Kinetic parameters were determined by non-linear regression (association followed by dissociation) on the subtracted data. […]

[2] = biological target: T2, Medicago truncatula NFP ectodomain (residues 28-246) double mutant L147D L154D (Medicago truncatula, UniProt Q0GXS4, L147D/L154D); assay: biolayer interferometry (BLI) binding of S. meliloti Nod factor LCO-IV to NFP L147D L154D ectodomain; details: double mutant vs WT
T2 construct: The M. truncatula NFP ectodomain (residues 28-246); AcMNPV gp67 signal peptide, replaces the native signal peptide (N); hexa-histidine (C); made in house; host or cells: Sf9 insect cells (Spodoptera frugiperda), baculovirus
Protocol: as §1
The M. truncatula NFP leucine residues L147 and L154 were replaced with aspartate residues. Aspartate is similar in size to leucine, but negatively charged where leucine is hydrophobic. Point mutants of NFP were engineered using site-directed mutagenesis. In particular, a double-mutated NFP was engineered where the leucine residues L147 and L154 were replaced with aspartate residues to create the mutant NFP L147D L154D. Point mutated versions of the NFP ectodomain were expressed and purified as described above.
as §2
(§3) Binding of NFP WT and NFP L147D/L154D mutant to S. meliloti Nod factor LCO-IV was measured on an Octet RED 96 system (Pall ForteBio). S. meliloti Nod factor LCO-IV consists of a tetrameric/pentameric N-acetylglucosamine backbone that is O-sulfated on the reducing terminal residue, O-acetylated on the non-reducing terminal residue, and mono-N-acylated by unsaturated C16 acyl groups. Biotinylated ligand conjugates were immobilized on streptavidin biosensors (kinetic quality, Pall ForteBio) at a concentration of 125-250 nM for 5 minutes. The binding assays were replicated 7 times for the NFP WT, and 4 times for the NFP L147D/L154D mutant. Data analysis was performed in GraphPad Prism 6 software (GraphPad Software, Inc.). Equilibrium dissociation constants derived from the steady-state were determined by applying a non-linear regression (one site, specific binding) to the response at equilibrium plotted against the protein concentration. Kinetic parameters were determined by non-linear regression (association followed by dissociation) on the subtracted data. Table 9 summarizes the kinetic parameters of FIGS. 18C-18D, with goodness of fit described by the global fit R^2 on the mean value of each point, and number of replicates performed using independent protein preparations (n) indicated.

[3] = Biolayer interferometry of A. thaliana CERK1 binding to chitin fragments; details: BLI; CO5 and CO8; result in words
Protocol: as §3, with “Table 9 summarizes the kinetic parameters of FIGS. 18C-18D, with goodness of fit described by the global fit R^2 on the mean value of each point, and number of replicates performed using independent protein preparations (n) indicated.” left out
Binding of A. thaliana CERK1 (AtCERK1) to chitopentaose (CO5) and chitooctaose (CO8) was measured in the same way.

[4] = system: L. japonicus nfr1-1 loss-of-function mutant; assay: Nodulation assay: complementation of L. japonicus nfr1-1 hairy roots after M. loti R7A DsRed inoculation; assay type: in vivo, Lotus japonicus; details: Nfr1 promoter, five weeks post inoculation
Protocol: A. rhizogenes carrying the expression constructs of interest were grown for two days on solid medium. The cells of one plate were resuspended in 2 ml YMB media, and this process was repeated for each construct. A 1 ml syringe with a needle (Sterican Ø0.40×20 mm) was then used to transform the plants, whereby the needle was used to puncture the hypocotyl and a droplet with the bacterial suspension was placed on the wound. Petri dishes containing the transformed roots were sealed and left in the dark for two days and then moved to 21° C. under 16 hour light/8 hour dark conditions. After three weeks, plants with transformed roots were moved to Magenta boxes (Sigma-Aldrich) filled with a 4:1 mixture of lightweight expanded clay aggregate (LECA, 2-4 mm; Saint-Gobain Weber A/S) and vermiculite (size M; Damolin A/S) supplemented with 80 ml nitrogen-free ¼× B&D nutrient solution. All plants were grown at 21° C. under 16 hour light/8 hour dark conditions.
Chimeric receptors under the control of the Nfr1 promoter were tested for their ability to complement a L. japonicus nfr1-1 loss-of-function mutant that is unable to develop root nodules (Radutoiu, S. et al. Nature 2003 425). […] At five weeks post inoculation, nodules were counted and images were acquired with a Leica FluoStereo M165FC microscope equipped with the Leica DFC310 FX camera. […]

[5] = system: M. truncatula nfp mutants; assay: Complementation assay of M. truncatula nfp mutants, inoculation with S. meliloti strain 2011; assay type: in vivo, Medicago truncatula; details: nfp mutant roots; 6-7 weeks after inoculation with S. meliloti strain 2011
From the text: Construct assembly, plant growth conditions, hairy root transformations, nodulation and ROS assays were generally conducted as described in Bozsoki, et al. 2017 (Bozsoki, Z. et al. Proc. Natl. Acad. Sci. 2017 114: E8118-E8127). The tested transgenes were the mutated LysM receptors described above.

T2 sequence (Q0GXS4 28-246 L147D/L154D): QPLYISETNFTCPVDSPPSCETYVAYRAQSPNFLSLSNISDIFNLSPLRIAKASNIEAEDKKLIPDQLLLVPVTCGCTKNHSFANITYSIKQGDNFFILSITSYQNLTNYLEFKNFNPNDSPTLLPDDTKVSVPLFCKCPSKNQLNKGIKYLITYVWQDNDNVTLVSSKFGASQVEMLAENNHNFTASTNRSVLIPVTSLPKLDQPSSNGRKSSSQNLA

For `CCCCCC/C=C\CCCCC/C=C/C(=O)N[C@H]1[C@H](O[C@H]2[C@H](O)[C@@H](NC(C)=O)[C@H](O[C@H]3[C@H](O)[C@@H](NC(C)=O)[C@H](O[C@H]4[C@H](O)[C@@H](NC(C)=O)C(O)O[C@@H]4COS(=O)(=O)O)O[C@@H]3CO)O[C@@H]2CO)O[C@H](COC(C)=O)[C@@H](O)[C@@H]1O` (stereo partly shown) [S. meliloti Nod factor LCO-IV], the kon ([1]; Table 8, read-out: A (converted)) was 0.958 M⁻¹ s⁻¹, the koff ([1]; Table 8, read-out: D (converted)) was 2.48e-05 s⁻¹ and the koff ([1]; Table 9, BLI, read-out: koff) was 0.00064 s⁻¹. The kon ([1]; Table 9, BLI, read-out: kon) was 50.3 M⁻¹ s⁻¹, the “affinity versus NFP WT (Table 8 data)” value [2] was “approximately two times lower affinity” and the “association (Kon) versus NFP WT (Table 8 data)” value [2] was “almost unaffected”. For the same molecule, the “association rate (kon), fold faster than WT (Table 9 data)” value [2] was 4.5 fold, the “dissociation (Koff), times faster than NFP WT (Table 8 data)” value [2] was “approximately 15 times” and the “dissociation rate (koff), fold increase over WT (Table 9 data)” value [2] was 59 fold. For the same molecule, the “lower affinity compared to WT NFP ectodomain (Table 9 data)” value [2] was 13 fold.

B1: A. thaliana CERK1: A. thaliana LysM chitin receptor CERK1 (protein, UniProt A8R7E6 24-617, looked up)
Chitin elicitor receptor …: KCRTSCPLALASYYLENGTTLSVINQNLNSSIAPYDQINFDPILRYNSNIKDKDRIQMGSRVLVPFPCECQPGDFLGHNFSYSVRQEDTYERVAISNYANLTTMESLQARNPFPATNIPLSATLNVLVNCSCGDESVSKDFGLFVTYPLRPEDSLSSIARSSGVSADILQRYNPGVNFNSGNGIVYVPGRDPNGAFPPFKSSKQDGVGAGVIAGIVIGVIVALLLILFIVYYAYRKNKSKGDSFSSSIPLSTKADHASSTSLQSGGLGGAGVSPGIAAISVDKSVEFSLEELAKATDNFNLSFKIGQGGFGAVYYAELRGEKAAIKKMDMEASKQFLAELKVLTRVHHVNLVRLIGYCVEGSLFLVYEYVENGNLGQHLHGSGREPLPWTKRVQIALDSARGLEYIHEHTVPVYVHRDIKSANILIDQKFRAKVADFGLTKLTEVGGSATRGAMGTFGYMAPETVYGEVSAKVDVYAFGVVLYELISAKGAVVKMTEAVGEFRGLVGVFEESFKETDKEEALRKIIDPRLGDSYPFDSVYKMAELGKACTQENAQLRPSMRYIVVALSTLFSSTGNWDVGNFQNEDLVSLMSGR
For B1, the “binding kinetics to chitin fragments” value [3] was “fast association and dissociation rates”.

B2: construct 41: Nfr1 promoter; LYK3 (protein, UniProt Q6UD73 1-620, looked up)
chain: MNLKNGLLLFILFLDCVFFKVESKCVKGCDVALASYYIIPSIQLRNISNFMQSKIVLTNSFDVIMSYNRDVVFDKSGLISYTRINVPFPCECIGGEFLGHVFEYTTKEGDDYDLIANTYYASLTTVELLKKFNSYDPNHIPVKAKINVTVICSCGNSQISKDYGLFVTYPLRSDDTLAKIATKAGLDEGLIQNFNQDANFSIGSGIVFIPGRDQNGHFFPLYSRTGIAKGSAVGIAMAGIFGLLLFVIYIYAKYFQKKEEEKTKLPQTSRAFSTQDASGSAEYETSGSSGHATGSAAGLTGIMVAKSTEFTYQELAKATNNFSLDNKIGQGGFGAVYYAELRGEKTAIKKMDVQASSEFLCELKVLTHVHHLNLVRLIGYCVEGSLFLVYEHIDNGNLGQYLHGIGTEPLPWSSRVQIALDSARGLEYIHEHTVPVYIHRDVKSANILIDKNLRGKVADFGLTKLIEVGNSTLHTRLVGTFGYMPPEYAQYGDVSPKIDVYAFGVVLYELITAKNAVLKTGESVAESKGLVQLFEEALHRMDPLEGLRKLVDPRLKENYPIDSVLKMAQLGRACTRDNPLLRPSMRSIVVALMTLSSPTEDCDDDSSYENQSLINLLSTR
modifications: full-length expressed from Nfr1 promoter
notes: Nfr1 promoter; LYK3
For B2, the “nodule formation (complementation of nfr1)” value [4] was “absence of nodulation; also recorded: signaling incompetent”.

B3: wild type M. truncatula NFP gene: wild type M. truncatula NFP transgene used to transform nfp mutant roots (protein, UniProt Q0GXS4 1-595, looked up)
chain: MSAFFLPSSSHALFLVLMLFFLTNISAQPLYISETNFTCPVDSPPSCETYVAYRAQSPNFLSLSNISDIFNLSPLRIAKASNIEAEDKKLIPDQLLLVPVTCGCTKNHSFANITYSIKQGDNFFILSITSYQNLTNYLEFKNFNPNLSPTLLPLDTKVSVPLFCKCPSKNQLNKGIKYLITYVWQDNDNVTLVSSKFGASQVEMLAENNHNFTASTNRSVLIPVTSLPKLDQPSSNGRKSSSQNLALIIGISLGSAFFILVLTLSLVYVYCLKMKRLNRSTSSSETADKLLSGVSGYVSKPTMYEIDAIMEGTTNLSDNCKIGESVYKANIDGRVLAVKKIKKDASEELKILQKVNHGNLVKLMGVSSDNDGNCFLVYEYAENGSLEEWLFSESSKTSNSVVSLTWSQRITIAMDVAIGLQYMHEHTYPRIIHRDITTSNILLGSNFKAKIANFGMARTSTNSMMPKIDVFAFGVVLIELLTGKKAMTTKENGEVVILWKDFWKIFDLEGNREERLRKWMDPKLESFYPIDNALSLASLAVNCTADKSLSRPTIAEIVLCLSLLNQPSSEPMLERSLTSGLDAEATHVVTSVIAR
modifications: full-length
notes: wild type M. truncatula NFP transgene used to transform nfp mutant roots
For B3, the “average nodules per plant” value [5] was 10 nodules per plant.
